Assay results taken from patent US20090203683A1, “BICYCLIC HETEROCYCLES, PHARMACEUTICAL COMPOSITIONS CONTAINING THEM, THEIR USE, AND PROCESSES FOR PREPARING THEM” (BOEHRINGER INGELHEIM PHARMA GMBH & CO. KG, priority 2000, published 2009).

Key:
human EGF-R = target: T1, human EGF-R (Homo sapiens, UniProt P00533); assay: Inhibition of EGF-dependent proliferation of F/L-HERc cells (Cell Titer 96 Aqueous Non-Radioactive Cell Proliferation Assay); type: cell-based; conditions: F/L-HERc cells (murine IL-3-dependent line expressing human EGF-R), stimulated with EGF 20 ng/ml, 48 hours at 37° C., relative cell number as % of control
T1 construct: expressed in transfected cells; host or cells: F/L-HERc cells (murine IL-3-dependent FDC-P1 cells transduced with retroviral vector LXSN carrying human EGF-R cDNA; packaging line GP+E86)
T1 sequence (P00533 25-1210): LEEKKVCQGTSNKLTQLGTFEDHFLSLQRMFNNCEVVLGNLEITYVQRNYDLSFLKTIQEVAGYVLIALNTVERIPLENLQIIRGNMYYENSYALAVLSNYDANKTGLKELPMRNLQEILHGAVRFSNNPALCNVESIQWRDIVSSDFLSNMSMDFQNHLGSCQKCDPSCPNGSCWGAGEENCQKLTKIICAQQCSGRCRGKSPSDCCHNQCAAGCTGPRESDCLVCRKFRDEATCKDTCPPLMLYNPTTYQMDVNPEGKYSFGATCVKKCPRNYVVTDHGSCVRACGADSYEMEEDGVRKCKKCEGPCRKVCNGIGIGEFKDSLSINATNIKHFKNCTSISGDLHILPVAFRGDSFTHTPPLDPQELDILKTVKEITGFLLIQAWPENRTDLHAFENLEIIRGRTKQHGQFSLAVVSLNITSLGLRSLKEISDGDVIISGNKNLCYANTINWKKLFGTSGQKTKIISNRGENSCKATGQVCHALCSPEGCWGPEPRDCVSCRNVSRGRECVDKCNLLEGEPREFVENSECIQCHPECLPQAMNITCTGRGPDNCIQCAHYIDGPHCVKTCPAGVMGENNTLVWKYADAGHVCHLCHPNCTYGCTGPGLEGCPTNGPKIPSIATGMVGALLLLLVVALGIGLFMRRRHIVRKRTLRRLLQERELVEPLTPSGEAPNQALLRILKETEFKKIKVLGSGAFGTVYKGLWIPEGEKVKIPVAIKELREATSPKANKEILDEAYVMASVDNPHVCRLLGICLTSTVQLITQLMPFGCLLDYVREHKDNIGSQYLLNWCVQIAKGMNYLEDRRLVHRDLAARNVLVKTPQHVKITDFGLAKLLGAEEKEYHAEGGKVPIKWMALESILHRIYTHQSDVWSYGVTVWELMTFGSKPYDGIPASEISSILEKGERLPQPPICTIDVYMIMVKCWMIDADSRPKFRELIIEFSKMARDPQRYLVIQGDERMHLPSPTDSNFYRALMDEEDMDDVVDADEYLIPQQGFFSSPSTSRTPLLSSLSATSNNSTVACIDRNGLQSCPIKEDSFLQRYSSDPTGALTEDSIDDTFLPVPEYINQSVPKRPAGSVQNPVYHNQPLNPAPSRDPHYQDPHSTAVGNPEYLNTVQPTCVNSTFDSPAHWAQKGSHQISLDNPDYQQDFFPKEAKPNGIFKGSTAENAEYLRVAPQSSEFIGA
Excerpt: The biological properties of the new compounds were investigated as follows. […] A cell line of murine origin dependent on interleukin-3-(IL-3) which was genetically modified to express functional human EGF-R was used here. The proliferation of these cells known as F/L-HERc can therefore be stimulated either by murine IL-3 or by EGF (cf. T. von Rüden et al. in EMBO J. 7, 2749-2756 (1988) and J. H. Pierce et al. in Science 239, 628-631 (1988)). The starting material used for the F/L-HERc cells was the cell line FDC-P1, the production of which has been described by T. M. Dexter et al. in J. Exp. Med. 152, 1036-1047 (1980). Alternatively, however, other growth-factor-dependent cells may also be used (cf. for example, J. H. Pierce et al. in Science 239, 628-631 (1988); H. Shibuya et al. in Cell 70, 57-67 (1992) and W. S. Alexander in EMBO J. 10, 3683-3691 (1991)). For expressing the human EGF-R cDNA (cf. A. Ullrich et al. in Nature 309, 418-425 (1984)) recombinant retroviruses were used as described by T. von Rüden et al., EMBO J. 7, 2749-2756 (1988), except that the retroviral vector LXSN (cf. A. D. Miller et al. in BioTechniques 7, 980-990 (1989)) was used for the expression of the EGF-R cDNA and the line GP+E86 (cf. D. Markowitz et al. in J. Virol. 62, 1120-1124 (1988)) was used as the packaging cell.
The test was performed as follows. F/L-HERc cells were cultivated in RPMI/1640 medium (BioWhittaker), supplemented with 10% fetal calf serum (FCS, Boehringer Mannheim), 2 mM glutamine (BioWhittaker), standard antibiotics and 20 ng/ml of human EGF (Promega), at 37° C. and 5% CO2—In order to investigate the inhibitory activity of the compounds according to the invention, 1.5×10^4 cells per well were cultivated in triplicate in 96-well dishes in the above medium (200 μl), the cell proliferation being stimulated with either EGF (20 ng/ml) or murine IL-3. The IL-3 used was obtained from culture supernatants of the cell line X63/0 mL-3 (cf. H. Karasuyama et al. in Eur. J. Immunol. 18, 97-104 (1988)). The compounds according to the invention were dissolved in 100% dimethylsulfoxide (DMSO) and added to the cultures in various dilutions, the maximum DMSO concentration being 1%. The cultures were incubated for 48 hours at 37° C.
In order to determine the inhibitory activity of the compounds according to the invention the relative cell number was measured in O.D. units using the Cell Titer 96™ Aqueous Non-Radioactive Cell Proliferation Assay (Promega). The relative cell number was calculated as a percentage of the control (F/LHERc cells without inhibitor) and the concentration of active substance which inhibits the proliferation of the cells by 50% (IC50) was derived therefrom.

SMILES | IC50 (human EGF-R) | melting point
CCOC(=O)CN1CCC[C@H]1COc1cc2c(Nc3cccc(Br)c3)ncnc2cc1OC [1(2), (s)-4-[(3-bromophenyl)amino]-6-({1-[(ethoxycarbonyl)methyl]pyrrolidin-2-yl}methoxy)-7-methoxyquinazoline] | 20 nM | –
COC(=O)CN1CCN(CCCOc2cc3c(Nc4ccc(F)c(Cl)c4)ncnc3cc2OC)CC1 [Example 1, 4-(3-chloro-4-fluorophenylamino)-6-{3-[4-(methoxycarbonylmethyl)-1-piperazinyl]propyloxy}-7-methoxyquinazoline] | 46 nM | –
CCOC(=O)CN1CCN(CCOc2cc3c(Nc4cccc(Br)c4)ncnc3cc2OC)CC1 [Example 3, 4-[(3-bromophenyl)amino]-6-(2-{4-[(ethoxycarbonyl)methyl]piperazin-1-yl}ethoxy)-7-methoxyquinazoline] | 45 nM | 155 °C
CCOC(=O)CN(CCOc1cc2c(Nc3cccc(Br)c3)ncnc2cc1OC)CC(=O)OCC [3(2), 4-[(3-bromophenyl)amino]-6-(2-{N,N-bis[(ethoxycarbonyl)methyl]amino}ethoxy)-7-methoxyquinazoline] | 70 nM | –

The remaining molecules from weak to strong by IC50 (human EGF-R), led by results:

IC50 (human EGF-R) | melting point | SMILES
230 nM | – | CCOC(=O)CN(C)CCCOc1cc2c(Nc3ccc(F)c(Cl)c3)ncnc2cc1OC [Example 2, 4-(3-chloro-4-fluorophenylamino)-6-{3-[N-(ethoxycarbonylmethyl)-N-methylamino]propyloxy}-7-methoxyquinazoline]
100 nM | – | CCOC(=O)CN(C)CCOc1cc2c(Nc3cccc(Br)c3)ncnc2cc1OC [3(1), 4-[(3-bromophenyl)amino]-6-(2-{N-[(ethoxycarbonyl)methyl]-N-methylamino}ethoxy)-7-methoxyquinazoline]
77 nM | – | COC(=O)CC(CC(=O)OC)N1CCN(CCOc2cc3c(Nc4cccc(Br)c4)ncnc3cc2OC)CC1 [3(4), 4-[(3-bromophenyl)amino]-6-[2-(4-{1-[(methoxycarbonyl)methyl]-2-(methoxycarbonyl)ethyl}piperazin-1-yl)ethoxy]-7-methoxyquinazoline]
39 nM | – | COC(=O)[C@@H]1CCCN1CCCOc1cc2c(Nc3cccc(Br)c3)ncnc2cc1OC [2(1), (s)-4-[(3-bromophenyl)amino]-6-[3-(2-methoxycarbonylpyrrolidin-1-yl)propyloxy]-7-methoxyquinazoline]
33 nM | 118 to 122 °C | CCOC(=O)CN1CCN(CC(O)COc2cc3c(Nc4cccc(Br)c4)ncnc3cc2OC)CC1 (centres unmarked) [Example 4, 4-[(3-bromophenyl)amino]-6-(3-{4-[(ethoxycarbonyl)methyl]piperazin-1-yl}-2-hydroxypropyloxy)-7-methoxyquinazoline]
